Assay [1] concerns the target Protein kinase C delta type (Homo sapiens, UniProt Q05655).
Assay [2] concerns the target Calcium/calmodulin-dependent protein kinase kinase 2 (Homo sapiens, UniProt Q96RR4).
Assay [3] deals with T1, Acyl-CoA dehydrogenase family member 11 (Homo sapiens, UniProt Q709F0).
T1 sequence (Q709F0 whole entry): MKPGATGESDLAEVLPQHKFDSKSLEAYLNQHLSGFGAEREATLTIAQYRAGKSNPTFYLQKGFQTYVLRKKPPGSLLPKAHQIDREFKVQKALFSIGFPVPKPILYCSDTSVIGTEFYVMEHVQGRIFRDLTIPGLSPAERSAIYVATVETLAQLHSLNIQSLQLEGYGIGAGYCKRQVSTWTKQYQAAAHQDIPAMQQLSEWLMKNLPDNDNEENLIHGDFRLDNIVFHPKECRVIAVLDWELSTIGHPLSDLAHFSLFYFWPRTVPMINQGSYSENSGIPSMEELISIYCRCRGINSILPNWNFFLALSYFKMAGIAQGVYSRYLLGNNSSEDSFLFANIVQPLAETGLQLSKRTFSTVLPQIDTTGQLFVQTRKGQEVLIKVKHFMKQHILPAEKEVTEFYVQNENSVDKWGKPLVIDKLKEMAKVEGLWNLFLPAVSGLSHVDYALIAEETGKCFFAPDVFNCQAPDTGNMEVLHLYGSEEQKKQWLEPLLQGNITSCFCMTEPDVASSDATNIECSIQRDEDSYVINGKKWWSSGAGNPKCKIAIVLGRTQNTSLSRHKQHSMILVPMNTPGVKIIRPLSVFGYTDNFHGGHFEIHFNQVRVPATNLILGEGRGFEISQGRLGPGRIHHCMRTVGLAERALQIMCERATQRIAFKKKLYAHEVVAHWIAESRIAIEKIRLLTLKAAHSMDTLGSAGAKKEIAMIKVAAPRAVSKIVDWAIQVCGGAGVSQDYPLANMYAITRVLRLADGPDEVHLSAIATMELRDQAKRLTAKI

Assay [4] deals with Structural maintenance of chromosomes protein 2 (Homo sapiens, UniProt O95347).
Chain of Structural maintenance of chromosomes protein 2 (O95347 whole entry): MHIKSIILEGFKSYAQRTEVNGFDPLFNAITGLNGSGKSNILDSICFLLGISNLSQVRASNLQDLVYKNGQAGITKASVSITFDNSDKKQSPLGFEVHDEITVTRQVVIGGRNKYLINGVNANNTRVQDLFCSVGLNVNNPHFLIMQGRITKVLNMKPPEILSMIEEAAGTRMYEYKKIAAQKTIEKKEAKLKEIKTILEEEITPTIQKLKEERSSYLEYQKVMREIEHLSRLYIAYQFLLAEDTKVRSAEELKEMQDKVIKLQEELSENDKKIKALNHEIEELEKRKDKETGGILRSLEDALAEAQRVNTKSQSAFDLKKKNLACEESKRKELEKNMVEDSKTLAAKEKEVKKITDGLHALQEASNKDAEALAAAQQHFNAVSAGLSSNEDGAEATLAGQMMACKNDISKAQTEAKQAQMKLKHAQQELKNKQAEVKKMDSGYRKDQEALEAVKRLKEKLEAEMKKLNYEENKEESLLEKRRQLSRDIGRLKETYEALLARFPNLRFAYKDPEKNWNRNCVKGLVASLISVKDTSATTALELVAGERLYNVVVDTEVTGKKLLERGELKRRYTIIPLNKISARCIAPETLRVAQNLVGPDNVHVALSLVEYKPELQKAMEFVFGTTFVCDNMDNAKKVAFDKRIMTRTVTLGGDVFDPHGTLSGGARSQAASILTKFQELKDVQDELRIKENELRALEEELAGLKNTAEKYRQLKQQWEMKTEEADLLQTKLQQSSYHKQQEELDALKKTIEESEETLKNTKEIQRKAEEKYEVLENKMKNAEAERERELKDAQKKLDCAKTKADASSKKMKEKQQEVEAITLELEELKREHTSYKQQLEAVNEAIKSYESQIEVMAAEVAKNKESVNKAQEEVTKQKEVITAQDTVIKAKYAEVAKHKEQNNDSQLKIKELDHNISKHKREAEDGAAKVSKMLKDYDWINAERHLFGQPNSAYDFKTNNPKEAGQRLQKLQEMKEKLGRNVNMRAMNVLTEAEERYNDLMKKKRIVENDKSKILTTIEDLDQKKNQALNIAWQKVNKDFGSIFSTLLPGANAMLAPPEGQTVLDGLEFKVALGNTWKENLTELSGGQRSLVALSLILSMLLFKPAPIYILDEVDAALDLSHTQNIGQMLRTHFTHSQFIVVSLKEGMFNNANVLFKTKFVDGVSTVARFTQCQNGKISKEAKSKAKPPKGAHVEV
Assay [5] addresses T2, Serine/threonine-protein kinase Nek2 (Homo sapiens, UniProt P51955).
T2 sequence (P51955 whole entry): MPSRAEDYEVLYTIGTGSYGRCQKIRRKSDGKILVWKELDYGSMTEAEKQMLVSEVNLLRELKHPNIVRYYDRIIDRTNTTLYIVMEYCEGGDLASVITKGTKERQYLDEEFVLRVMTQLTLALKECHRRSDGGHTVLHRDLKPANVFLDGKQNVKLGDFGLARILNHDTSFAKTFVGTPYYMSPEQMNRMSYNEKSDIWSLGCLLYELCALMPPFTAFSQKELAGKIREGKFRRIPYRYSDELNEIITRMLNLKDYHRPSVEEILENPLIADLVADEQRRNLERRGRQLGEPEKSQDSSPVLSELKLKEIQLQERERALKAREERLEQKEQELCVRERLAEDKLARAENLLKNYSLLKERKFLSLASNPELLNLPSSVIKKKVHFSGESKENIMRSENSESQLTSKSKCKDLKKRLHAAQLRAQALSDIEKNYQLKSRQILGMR

Assay [6] concerns the target Tyrosine-protein kinase Yes (Homo sapiens, UniProt P07947).
The target in assay [7] is T3, Cyclin-G-associated kinase (Homo sapiens, UniProt O14976).
T3 sequence (O14976 whole entry): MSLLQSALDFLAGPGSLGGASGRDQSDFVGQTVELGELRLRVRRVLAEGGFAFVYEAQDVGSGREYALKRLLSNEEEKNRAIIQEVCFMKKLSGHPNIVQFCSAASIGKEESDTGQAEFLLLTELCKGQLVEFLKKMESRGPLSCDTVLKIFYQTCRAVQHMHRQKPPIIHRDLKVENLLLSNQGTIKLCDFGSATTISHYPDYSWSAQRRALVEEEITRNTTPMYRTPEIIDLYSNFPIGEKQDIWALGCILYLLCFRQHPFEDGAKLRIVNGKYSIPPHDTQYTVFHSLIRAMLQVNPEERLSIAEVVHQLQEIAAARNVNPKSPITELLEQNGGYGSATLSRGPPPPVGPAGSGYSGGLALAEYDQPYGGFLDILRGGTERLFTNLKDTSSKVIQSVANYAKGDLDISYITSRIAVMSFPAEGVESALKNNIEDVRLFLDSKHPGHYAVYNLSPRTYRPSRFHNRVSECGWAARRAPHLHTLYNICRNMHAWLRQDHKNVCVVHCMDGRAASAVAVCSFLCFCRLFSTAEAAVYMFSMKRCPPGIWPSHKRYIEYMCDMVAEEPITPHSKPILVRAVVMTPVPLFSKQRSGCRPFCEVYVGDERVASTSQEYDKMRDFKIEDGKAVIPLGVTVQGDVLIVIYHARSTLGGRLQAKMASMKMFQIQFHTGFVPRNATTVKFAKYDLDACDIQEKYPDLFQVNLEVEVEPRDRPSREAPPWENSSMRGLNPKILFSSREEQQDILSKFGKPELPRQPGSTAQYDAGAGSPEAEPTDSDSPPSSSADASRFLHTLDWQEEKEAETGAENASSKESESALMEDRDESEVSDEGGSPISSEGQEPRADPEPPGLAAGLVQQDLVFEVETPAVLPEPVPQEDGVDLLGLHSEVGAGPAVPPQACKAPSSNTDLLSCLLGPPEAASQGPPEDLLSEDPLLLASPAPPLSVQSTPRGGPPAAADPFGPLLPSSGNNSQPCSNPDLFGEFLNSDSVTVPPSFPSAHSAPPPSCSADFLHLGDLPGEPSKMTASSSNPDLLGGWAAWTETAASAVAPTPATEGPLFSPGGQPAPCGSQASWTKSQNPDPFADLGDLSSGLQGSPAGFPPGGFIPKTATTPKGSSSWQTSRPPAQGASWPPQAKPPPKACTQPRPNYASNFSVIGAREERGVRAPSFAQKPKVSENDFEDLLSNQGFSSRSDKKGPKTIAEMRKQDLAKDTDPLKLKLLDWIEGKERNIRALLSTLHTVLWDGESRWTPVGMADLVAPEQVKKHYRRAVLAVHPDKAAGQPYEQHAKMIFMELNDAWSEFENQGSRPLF

Assay [8] has as its target Tyrosine-protein kinase ABL1 (Homo sapiens, UniProt P00519).

Usually Kd stands for the free concentration of one partner at which half of the binding sites on the other are occupied at equilibrium, for simple one-to-one binding.

Calls of active or inactive are those of the source. Cut-off read from the data, not from the text of the source, for most assays here: actives have a measured Kd and inactives only a lower limit.
Note: in the data inactive means no Kd found up to 30 µM.

Chain of Tyrosine-protein kinase Yes (P07947 whole entry): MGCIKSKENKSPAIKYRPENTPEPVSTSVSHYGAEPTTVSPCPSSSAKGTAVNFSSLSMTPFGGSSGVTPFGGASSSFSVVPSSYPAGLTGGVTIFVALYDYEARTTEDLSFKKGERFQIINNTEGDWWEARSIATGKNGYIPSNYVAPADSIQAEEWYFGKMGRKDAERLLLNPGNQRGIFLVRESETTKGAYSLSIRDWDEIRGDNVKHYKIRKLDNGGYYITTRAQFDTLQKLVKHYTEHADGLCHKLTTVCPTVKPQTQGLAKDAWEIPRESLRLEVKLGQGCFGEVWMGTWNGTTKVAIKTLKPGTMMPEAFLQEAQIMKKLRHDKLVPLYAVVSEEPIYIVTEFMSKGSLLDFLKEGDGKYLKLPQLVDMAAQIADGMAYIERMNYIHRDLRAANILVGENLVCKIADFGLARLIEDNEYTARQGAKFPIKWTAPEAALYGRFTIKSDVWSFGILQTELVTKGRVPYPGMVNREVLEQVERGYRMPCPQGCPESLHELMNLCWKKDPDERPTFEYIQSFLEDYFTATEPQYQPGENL
Chain of Tyrosine-protein kinase ABL1 (P00519 whole entry): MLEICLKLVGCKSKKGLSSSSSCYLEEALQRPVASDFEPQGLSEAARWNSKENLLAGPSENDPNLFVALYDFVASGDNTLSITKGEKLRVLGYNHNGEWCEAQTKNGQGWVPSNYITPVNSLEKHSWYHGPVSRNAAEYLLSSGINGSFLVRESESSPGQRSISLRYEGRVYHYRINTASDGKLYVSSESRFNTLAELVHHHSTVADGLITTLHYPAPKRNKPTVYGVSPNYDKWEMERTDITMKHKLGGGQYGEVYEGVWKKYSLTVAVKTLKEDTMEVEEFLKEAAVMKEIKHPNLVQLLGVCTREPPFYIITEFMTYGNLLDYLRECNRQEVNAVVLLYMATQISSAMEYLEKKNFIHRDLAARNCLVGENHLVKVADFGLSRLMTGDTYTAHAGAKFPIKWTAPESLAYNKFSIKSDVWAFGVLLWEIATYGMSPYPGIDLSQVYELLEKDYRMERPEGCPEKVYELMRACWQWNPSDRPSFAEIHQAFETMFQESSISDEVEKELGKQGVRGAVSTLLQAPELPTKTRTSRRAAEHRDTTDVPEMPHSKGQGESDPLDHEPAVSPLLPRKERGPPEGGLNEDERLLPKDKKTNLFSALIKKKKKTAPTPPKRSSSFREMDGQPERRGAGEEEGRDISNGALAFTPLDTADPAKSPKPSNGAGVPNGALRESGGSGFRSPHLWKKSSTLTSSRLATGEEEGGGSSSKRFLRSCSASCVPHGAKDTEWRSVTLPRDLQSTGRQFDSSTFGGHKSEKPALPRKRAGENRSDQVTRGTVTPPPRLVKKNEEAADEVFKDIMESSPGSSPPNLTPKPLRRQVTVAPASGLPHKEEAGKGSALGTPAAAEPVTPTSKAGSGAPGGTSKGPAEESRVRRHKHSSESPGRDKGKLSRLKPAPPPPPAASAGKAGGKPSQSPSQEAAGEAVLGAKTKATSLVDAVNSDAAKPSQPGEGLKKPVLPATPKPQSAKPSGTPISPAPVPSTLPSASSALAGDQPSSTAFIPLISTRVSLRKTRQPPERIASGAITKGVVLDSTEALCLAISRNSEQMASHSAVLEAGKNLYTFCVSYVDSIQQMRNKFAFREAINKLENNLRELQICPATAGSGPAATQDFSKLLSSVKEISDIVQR
Chain of Protein kinase C delta type (Q05655 whole entry): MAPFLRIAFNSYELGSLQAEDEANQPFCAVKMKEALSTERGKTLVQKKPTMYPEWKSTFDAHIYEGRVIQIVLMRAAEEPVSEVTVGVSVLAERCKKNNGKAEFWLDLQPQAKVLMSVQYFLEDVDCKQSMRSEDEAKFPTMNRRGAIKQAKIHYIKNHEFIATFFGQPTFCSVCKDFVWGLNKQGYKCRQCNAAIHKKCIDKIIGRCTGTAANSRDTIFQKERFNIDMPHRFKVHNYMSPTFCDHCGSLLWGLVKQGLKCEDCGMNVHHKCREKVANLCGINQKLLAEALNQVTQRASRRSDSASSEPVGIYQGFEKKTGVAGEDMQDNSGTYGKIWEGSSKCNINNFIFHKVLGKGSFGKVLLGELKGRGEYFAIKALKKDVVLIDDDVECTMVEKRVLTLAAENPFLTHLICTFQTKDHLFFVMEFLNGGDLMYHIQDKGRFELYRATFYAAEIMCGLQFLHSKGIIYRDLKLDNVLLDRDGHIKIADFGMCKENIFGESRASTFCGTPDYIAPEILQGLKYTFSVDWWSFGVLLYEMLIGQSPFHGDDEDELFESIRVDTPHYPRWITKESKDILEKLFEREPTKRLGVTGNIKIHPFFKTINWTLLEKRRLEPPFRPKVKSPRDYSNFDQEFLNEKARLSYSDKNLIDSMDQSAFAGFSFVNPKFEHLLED
Chain of Calcium/calmodulin-dependent protein kinase kinase 2 (Q96RR4 whole entry): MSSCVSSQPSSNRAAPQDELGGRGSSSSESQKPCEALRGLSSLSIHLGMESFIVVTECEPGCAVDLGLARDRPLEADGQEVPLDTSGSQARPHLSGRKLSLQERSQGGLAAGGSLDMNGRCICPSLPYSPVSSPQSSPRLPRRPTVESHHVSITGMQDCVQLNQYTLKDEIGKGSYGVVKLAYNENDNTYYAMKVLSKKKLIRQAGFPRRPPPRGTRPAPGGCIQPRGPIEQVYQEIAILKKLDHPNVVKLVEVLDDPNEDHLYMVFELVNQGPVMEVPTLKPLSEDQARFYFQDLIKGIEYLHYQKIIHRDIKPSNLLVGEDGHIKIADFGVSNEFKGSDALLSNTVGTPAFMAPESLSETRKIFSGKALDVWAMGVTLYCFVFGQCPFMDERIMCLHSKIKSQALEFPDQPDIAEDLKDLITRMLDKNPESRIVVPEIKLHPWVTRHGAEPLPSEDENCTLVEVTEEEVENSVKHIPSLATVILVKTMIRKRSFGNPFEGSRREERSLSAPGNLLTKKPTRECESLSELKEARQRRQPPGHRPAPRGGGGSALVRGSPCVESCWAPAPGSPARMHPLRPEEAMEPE

In the case of `COc1cc(Nc2ncc(F)c(Nc3ccc4c(n3)N(COP(=O)(O)O)C(=O)C(C)(C)O4)n2)cc(OC)c1OC` [FOSTAMATINIB], the Kd in assay [1], in assay [2], in assay [3], in assay [4], in assay [5] and in assay [6] was > 30 µM (inactive) each time. For the same compound, the Kd in assay [7] and in assay [8] was > 30 µM (inactive) each time.

Consider `NC[C@@](O)(c1ccc(Cl)cc1)c1ccc(-c2cn[nH]c2)cc1` [AT-13148], for which the equilibrium dissociation constant (Kd) in assay [1] is 0.044 µM (active); in assay [2] it was > 30 µM (inactive); in assay [3], > 30 µM (inactive); in assay [4], > 30 µM (inactive); in assay [5], > 30 µM (inactive); in assay [6] it was > 30 µM (inactive). Further, the Kd in assay [7] and in assay [8] was > 30 µM (inactive) each time.

Regarding `Cc1c(NC(=O)OC[C@@H]2COCCN2)cn2ncnc(Nc3ccc4c(cnn4Cc4cccc(F)c4)c3)c12` [AC-480], the Kd in assay [1], in assay [2], in assay [3], in assay [4], in assay [5] and in assay [6] was > 30 µM (inactive) each time. Further, the Kd in assay [7] and in assay [8] was > 30 µM (inactive) each time.

As for `O[C@H]1CC[C@H](Nc2ncc3nc(Nc4c(F)cc(F)cc4F)n([C@H]4CCOC4)c3n2)CC1` [TANZISERTIB], the Kd in assay [1], in assay [2], in assay [3], in assay [4], in assay [5] and in assay [6] was > 30 µM (inactive) throughout. Also, the results for the Kd in assay [7] and in assay [8] were 0.156 µM (active) and > 30 µM (inactive), respectively.

The record behind these values is ChEMBL document CHEMBL3991601, “The target landscape of clinical kinase drugs” (Science, 2017).
